# Experiments:
# [1] = biological target: T1, mouse potassium voltage-gated channel KCNC1 (Mus musculus, UniProt P15388); test: Membrane potential assay (Disbac5Me4/Disbac3Me4 fluorescence) in tetracycline-inducible KCNC1 TREX/CHO cells; type: cell-based; conditions: for response to KCl addition / depolarization with KCl (membrane potential dye fluorescence): induced KCNC1 CHO cells pre-incubated with BaCl2 30 mM at least 30 minutes; for depolarization (change in fluorescence intensity of the indicator dye) on addition of potassium chloride: KCl added in 50 mM steps, induced vs non-induced KCNC1 CHO cells, FIG. 4
# T1 construct: The 2 kb KCNC1 gene fragment and the pcDNA4/Tob vector were gel purified, ligated; host or cells: T-REx CHO cells
# T1 sequence (P15388 1-585 isoform P15388-3): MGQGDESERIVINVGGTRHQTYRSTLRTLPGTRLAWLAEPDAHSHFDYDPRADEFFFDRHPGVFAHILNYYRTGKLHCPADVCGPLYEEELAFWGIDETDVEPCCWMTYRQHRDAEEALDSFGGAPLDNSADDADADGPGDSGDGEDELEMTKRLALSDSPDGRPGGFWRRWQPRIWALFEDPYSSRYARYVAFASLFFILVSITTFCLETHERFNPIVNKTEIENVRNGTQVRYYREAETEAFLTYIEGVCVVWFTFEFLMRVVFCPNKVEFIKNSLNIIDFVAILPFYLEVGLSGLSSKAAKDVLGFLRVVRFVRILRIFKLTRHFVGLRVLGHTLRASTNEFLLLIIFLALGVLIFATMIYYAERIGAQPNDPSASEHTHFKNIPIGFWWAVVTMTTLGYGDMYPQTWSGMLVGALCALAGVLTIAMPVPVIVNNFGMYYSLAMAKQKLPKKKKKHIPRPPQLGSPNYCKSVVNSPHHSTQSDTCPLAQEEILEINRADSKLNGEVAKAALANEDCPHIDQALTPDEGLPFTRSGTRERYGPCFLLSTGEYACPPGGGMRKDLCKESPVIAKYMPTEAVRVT
# Experimental: In this example, fluorescent dyes are used to assay for changes in membrane potential, essentially as described in Example 4.
# A KCNC1 positive TREX/CHO clone was plated at 3×10^6 cells in replicate 10 cm tissue culture dishes. After 24 hours one dish was treated with 10 μg/mL deoxycycline to induce KCNC1 expression. After a 24 hour induction period, both induced and uninduced cells were harvested with trypsin, counted, and adjusted to equal cell densities in hybridoma media (Sigma, St. Louis, Mo.). A solution of 3.3×10^5 cells and 0.4 μM of each Disbac5Me4 and Disbac3Me4 in hybridoma media was stirred in a cuvette in a JY-Fluormax-2 fluorometer (JY, Edison N.J.). Fluorescence intensity from 540 nm excitation and 690 nm emission was measured over time. The extracellular potassium chloride level was adjusted to 50 mM, 10 mM, and 150 mM with 3 N KCl at the indicated times. Each cell population was tested in triplicate and the mean and standard error (SE) were determined.
# 4-aminopyridine is a known specific inhibitor of Kv3.1b (Grissmer et al., Molec. Pharmacol. 45:1227-1234, 1994; Kirsch and Drewe, Jour. Gen. Physiol. 102:797-816, 1993; Grissmer et al. Jour. Biol. Chem. 267:20971-20979, 1992), the human homologue of KCNC1. […] Pre-incubation with 30 mM KCl had no effect, ruling out the possibility that effects of BaCl2 resulted from simply changing the ionic strength of the extracellular medium (data not shown). Each cell population was tested in triplicate. The mean and SE are shown in the FIG. 5 (aminopyridine) and FIG. 6 (BaCl2).
# [2] = biological target: T2, HERG potassium ion channel (Homo sapiens, UniProt Q12809); test: Membrane potential assay (Disbac5Me4/Disbac3Me4 fluorescence) in inducible HERG TREX/CHO clone 5J; type: cell-based; conditions: FIG. 8
# T2 construct: expressed in transfected cells; host or cells: T-REx CHO cells, clone 5J
# Experimental: The HERG positive TREX/CHO clone 5J was plated at 3×10^6 cells in replicate 10 cm tissue culture dishes. After 24 hours one dish was treated with […] doxycycline to induce HERG expression. After 24 hours induction, both induced and uninduced cells were harvested with trypsin, counted and adjusted to the same cell density in hybridoma media (Sigma). A solution of 1×10^5 cells/ml and 0.4 μM each Disbac5Me4 and Disbac3Me4 in hybridoma media was stirred in a cuvette in a JY-Spex fluorometer. Fluorescence intensity from 540 excitation and 690 emission was followed over time. The extracellular potassium chloride was adjusted to 100 mM with 3N KCl at the indicated time. 25 nM pimozide was then added at the indicated time.
# T2 sequence (Q12809 whole entry): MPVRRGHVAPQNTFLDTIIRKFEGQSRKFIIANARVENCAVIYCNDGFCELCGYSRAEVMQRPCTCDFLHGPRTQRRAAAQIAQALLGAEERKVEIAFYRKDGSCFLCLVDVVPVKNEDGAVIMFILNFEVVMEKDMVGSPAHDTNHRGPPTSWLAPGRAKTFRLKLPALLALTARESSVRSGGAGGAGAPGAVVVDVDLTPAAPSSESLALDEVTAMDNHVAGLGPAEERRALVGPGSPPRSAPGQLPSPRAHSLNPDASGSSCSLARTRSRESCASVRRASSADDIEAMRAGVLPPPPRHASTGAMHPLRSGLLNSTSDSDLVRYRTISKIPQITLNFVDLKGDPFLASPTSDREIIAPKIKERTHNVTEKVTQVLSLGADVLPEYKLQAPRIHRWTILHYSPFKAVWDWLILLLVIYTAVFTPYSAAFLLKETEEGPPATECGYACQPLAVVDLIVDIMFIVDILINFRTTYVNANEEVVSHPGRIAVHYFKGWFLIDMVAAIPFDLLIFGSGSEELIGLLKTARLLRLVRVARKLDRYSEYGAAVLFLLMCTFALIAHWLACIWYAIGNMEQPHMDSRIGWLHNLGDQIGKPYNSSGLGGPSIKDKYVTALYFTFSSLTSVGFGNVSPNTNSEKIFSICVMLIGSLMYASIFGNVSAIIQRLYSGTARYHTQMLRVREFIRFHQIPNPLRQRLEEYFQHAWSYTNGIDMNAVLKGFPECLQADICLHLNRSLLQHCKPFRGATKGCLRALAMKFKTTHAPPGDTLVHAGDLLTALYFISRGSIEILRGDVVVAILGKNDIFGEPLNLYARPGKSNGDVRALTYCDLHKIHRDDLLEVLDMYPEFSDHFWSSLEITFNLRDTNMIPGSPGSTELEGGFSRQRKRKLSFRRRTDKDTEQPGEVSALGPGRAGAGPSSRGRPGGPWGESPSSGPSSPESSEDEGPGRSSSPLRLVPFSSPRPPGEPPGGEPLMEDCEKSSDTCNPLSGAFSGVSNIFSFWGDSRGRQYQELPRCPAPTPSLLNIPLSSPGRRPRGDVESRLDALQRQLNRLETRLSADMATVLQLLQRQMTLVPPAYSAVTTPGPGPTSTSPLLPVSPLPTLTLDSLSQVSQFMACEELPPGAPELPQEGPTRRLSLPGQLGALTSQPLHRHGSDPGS
structure (smiles),measurement,setting,value
Nc1ccncc1 [4-aminopyridine],response to KCl addition (membrane potential dye fluorescence),"[1]; induced KCNC1 CHO cells pre-incubated with 4-aminopyridine 900 μM at least 30 minutes, FIG. 5",lessened the response to KCl addition
same,characteristics of cells induced to overexpress KCNC1 compared with uninduced cells,"[1]; pre-incubated with 4-aminopyridine (900 μM), FIG. 5",show characteristics more similar to uninduced cells
[Ba+2].[Cl-].[Cl-] [BaCl2],resting potential,"[1]; KCNC1 CHO cells pre-incubated with BaCl2 30 mM at least 30 minutes, FIG. 6",less polarized resting potential
same,response to KCl addition / depolarization with KCl (membrane potential dye fluorescence),[1]; FIG. 6,ameliorated the response to KCl addition
same,response to KCl addition / depolarization with KCl (membrane potential dye fluorescence),"[1]; FIG. 6, listed as BaCI2",decreased response to depolarization with KCl
same,characteristics of cells induced to overexpress KCNC1 compared with uninduced cells,"[1]; pre-incubated with BaCl2 (30 mM), FIG. 6",show characteristics more similar to uninduced cells
"[Cl-].[K+] [KCl, potassium chloride]",depolarization (change in fluorescence intensity of the indicator dye) on addition of potassium chloride,[1],show a response
same,depolarization (change in fluorescence intensity of the indicator dye) on addition of potassium chloride,[1]; listed as potassium chloride,depolarization of the an induced population of cells in comparison to a non-induced cell population
same,effect of pre-incubation on membrane potential response (ionic strength control),"[1]; pre-incubation with 30 mM KCl, data not shown",no effect
same,depolarization on addition of potassium chloride,"[2]; 100 mM KCl, induced HERG expressing vs uninduced cells",depolarizes the HERG expressing cells to a greater extent than the uninduced cells
O=c1[nH]c2ccccc2n1C1CCN(CCCC(c2ccc(F)cc2)c2ccc(F)cc2)CC1 [pimozide],sensitivity of membrane potential to pimozide,"[2]; 25 nM pimozide added after 100 mM KCl, induced vs uninduced cells",more sensitive

# Source: patent US20030082511A1, “Identification of modulatory molecules using inducible promoters” (priority 2001, published 2003)
